The values that follow come from patent US12152017B2, “Ketoamide compound and preparation method, pharmaceutical composition, and use thereof” (Shanghai Institute of Materia Medica, Chinese Academy of …, priority 2018, dated 2024).

As usually defined, the IC50 is the point on the concentration scale where inhibition reaches its midpoint.

The experiment has as its system MERS-CoV pseudovirus. Nature of the experiment: microbe, parasite or virus in culture. The following applies: Middle East respiratory syndrome-related coronavirus, Huh-7, read-out: MERS-CoV pseudovirus inhibitory activity IC50. The class given is cell-based.
For the compound `O=C(NCc1ccccc1)C(=O)[C@H](C[C@@H]1CCCNC1=O)NC(=O)[C@H](CC1CCCCC1)NC(=O)c1cc2ccccc2[nH]1` [Example A5], the IC50 amounted to 0.5 ± 0.2 nM.
Next, `O=C(NC1CCCCC1)C(=O)[C@H](C[C@@H]1CCCNC1=O)NC(=O)[C@H](CC1CCCCC1)NC(=O)c1cc2ccccc2o1` [Example A15]: < 0.1 nM.
Next, `O=C(NCc1ccccc1)C(=O)[C@H](C[C@@H]1CCCNC1=O)NC(=O)[C@H](CC1CCCCC1)NC(=O)c1cc2ccccc2s1` [Example A21]: 8.2 ± 3.2 nM.
Take `Cn1c(C(=O)N[C@@H](CC2CCCCC2)C(=O)N[C@@H](C[C@@H]2CCNC2=O)C(=O)C(=O)NC(C)(C)C)cc2ccccc21` [Example A25]: the half-inhibitory concentration (IC50) turned out to be 407 ± 352 nM.
Consider `Cn1c(C(=O)N[C@@H](CC2CCCCC2)C(=O)N[C@@H](C[C@@H]2CCNC2=O)C(=O)C(=O)NC2CCCCC2)cc2ccccc21` [Example A26, N—((S)-3-cyclohexyl-1-(((S)-4-(cyclohexylamino)-3,4-dione-1-((S)-2-oxopyrrolidine-3-yl)but-2-yl)amino)-3-cyclohexyl-1-oxopropan-2-yl)-1-methyl-1H-indole-2-carboxamide], for which the IC50 came out at 7.8 ± 3.5 nM.
On to `Cn1c(C(=O)N[C@@H](CC2CCCCC2)C(=O)N[C@@H](C[C@@H]2CCCNC2=O)C(=O)C(=O)NCc2ccccc2)cc2ccccc21` [Example A27], for which the half-inhibitory concentration (IC50) amounted to 8 ± 4 nM.
With `CC(C)(C)NC(=O)C(=O)[C@H](C[C@@H]1CCNC1=O)NC(=O)[C@H](CC1CCCCC1)NC(=O)c1ccc2ccccc2n1` [Example A43], the IC50 is 786 ± 458 nM.
Next, `O=C(NC1CCCCC1)C(=O)[C@H](C[C@@H]1CCNC1=O)NC(=O)[C@H](CC1CCCCC1)NC(=O)c1ccc2ccccc2n1` [Example A44, N—((S)-3-cyclohexyl-1-(((S)-4-(cyclohexylamino)-3,4-dione-1-((S)-2-oxopyrrolidine-3-yl)but-2-yl)amino)-3-cyclohexyl-1-oxopropan-2-yl)-quinoline-2-carboxamide]: 18 ± 5.6 nM.
Next, `O=C(NCc1ccccc1)C(=O)[C@H](C[C@@H]1CCCNC1=O)NC(=O)[C@H](Cc1ccccc1)NC(=O)c1cc2ccccc2[nH]1` [Example A51, N—((S)-1-(((S)-4-(benzylamino)-3,4-dione-1-((S)-2-oxopiperidine-3-yl)but-2-yl)amino)-1-oxo-3-phenylpropan-2-yl)-1H-indole-2-carboxamide]: < 0.1 nM.
Under `O=C(NCc1ccccc1)C(=O)[C@H](C[C@@H]1CCCNC1=O)NC(=O)[C@H](Cc1ccccc1)NC(=O)c1cnc2ccccc2n1` [Example A81, N—((S)-1-(((S)-4-(benzylamino)-3,4-dione-1-((S)-2-oxopiperidine-3-yl)but-2-yl)amino)-1-oxo-3-phenylpropan-2-yl)-quinoxaline-2-carboxamide] stands 0.2 ± 0.1 nM.
For `CC(C)NC(=O)CC[C@H](NC(=O)[C@H](CC1CCCCC1)NC(=O)c1cc2ccccc2[nH]1)C(=O)C(=O)NCc1ccccc1` [Example A232, N—((S)-1-(((S)-4-(benzyl)-3,4-dione-1-(isopropylamino)-2-yl)amino)-3-(cyclohexyl)-1-oxopropan-2-yl)-1H-indole-2-carboxamide], the IC50 came to 13.4 ± 3 nM.
Under `CC(C)NC(=O)CC[C@H](NC(=O)[C@H](CC1CCCCC1)NC(=O)c1cnc2ccccc2n1)C(=O)C(=O)NCc1ccccc1` [Example A236, N—((S)-1-(((S)-4-(benzyl)-3,4-dione-1-(isopropylamino)-2-yl)amino)-3-(cyclohexyl)-1-oxopropan-2-yl)-quinoxaline-2-carboxamide] stands 16.6 ± 4 nM.
Next, `O=C(NCc1ccccc1)C(=O)[C@H](C[C@@H]1CCCNC1=O)NC(=O)[C@H](CC1CCCCC1)NC(=O)c1cc2ccc(F)cc2[nH]1` [Example A240]: 15.9 ± 7 nM; `O=C(NCc1ccccc1)C(=O)[C@H](C[C@@H]1CCCNC1=O)NC(=O)C(CC1CCCCC1)NC(=O)c1ccc2c(c1)OCO2` (stereo partly drawn) [Example A243]: 10.7 ± 0.8 nM; `O=C(NCc1ccccc1)C(=O)[C@H](C[C@@H]1CCCNC1=O)NC(=O)C(CC1CCCCC1)NC(=O)c1nc2ccccc2[nH]1` (stereo partly drawn) [Example A244]: 12.6 ± 12.2 nM.
Under `COc1cccc2cc(C(=O)NC(CC3CCCCC3)C(=O)N[C@@H](C[C@@H]3CCCNC3=O)C(=O)C(=O)NCc3ccccc3)oc12` (stereo partly drawn) [Example A245] stands 18.4 ± 8 nM.
With `Cc1c(C(=O)NC(CC2CCCCC2)C(=O)N[C@@H](C[C@@H]2CCCNC2=O)C(=O)C(=O)NCc2ccccc2)oc2ccccc12` (stereo partly drawn) [Example A246], the half-maximal inhibitory concentration (IC50) stood at 10.8 ± 10 nM.
Next, `Cc1ccc2oc(C(=O)NC(CC3CCCCC3)C(=O)N[C@@H](C[C@@H]3CCCNC3=O)C(=O)C(=O)NCc3ccccc3)c(C)c2c1` (stereo partly drawn) [Example A247]: 1.7 ± 0.4 nM; `COc1ccc(OC)c2oc(C(=O)NC(CC3CCCCC3)C(=O)N[C@@H](C[C@@H]3CCCNC3=O)C(=O)C(=O)NCc3ccccc3)cc12` (stereo partly drawn) [Example A248]: 8.4 ± 1.7 nM.
For the compound `O=C(NCc1ccccc1)C(=O)[C@H](C[C@@H]1CCCNC1=O)NC(=O)C(CC1CCCCC1)NC(=O)c1coc2ccccc12` (stereo partly drawn) [Example A249], the IC50 was 0.6 ± 0.2 nM.
Next, `O=C(NCc1ccccc1)C(=O)[C@H](C[C@@H]1CCCNC1=O)NC(=O)C(CC1CCCCC1)NC(=O)C1=Cc2cc(Cl)ccc2OC1` (stereo partly drawn) [Example A250]: 0.7 ± 0.1 nM.
